The values below come from PMC8472993, “A Novel Glutathione S-Transferase Gtt2 Class (VpGSTT2) Is Found in the Genome of the AHPND/EMS Vibrio parahaemolyticus Shrimp Pathogen” (Toxins, 2021).

One test concerns the target T1, VpGSTT2 (Vibrio parahaemolyticus, UniProt Q87HB4).
T1 construct: gene VPA1051; Full coding region, synthetic E. coli-optimised gene in pET11a; C-terminal PreScission site and 6xHis tag (tag removal described); E. coli BL21(DE3) Gold
T1 sequence (Q87HB4 1-204): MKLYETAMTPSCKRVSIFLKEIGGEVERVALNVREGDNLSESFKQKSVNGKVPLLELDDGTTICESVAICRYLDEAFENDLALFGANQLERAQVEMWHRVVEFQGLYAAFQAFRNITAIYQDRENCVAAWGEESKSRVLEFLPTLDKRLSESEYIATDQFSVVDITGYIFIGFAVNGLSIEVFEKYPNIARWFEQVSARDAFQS
Put plainly: spectrophotometric CDNB conjugation at […] nm, initial rates. It is filed as biochemical. The settings on record: read-out: CDNB / Km; CDNB 0.3-2 mM, GSH 0.5 mM fixed; phosphate buffer (0.1 M NaH2PO4 pH 6.5), room temperature.

The target in test [1] is Glutathione S-transferase class Gtt2 from Vibrio parahaemolyticus (VpGSTT2) (Vibrio parahaemolyticus (strain FIM-S1708+)). As to the kind of experiment: SEC; Superdex 75 HR 10/300 GL on an Äkta Pure, calibrated with molecular-weight standards (conalbumin, ovalbumin, carbonic anhydrase, ribonuclease A, aprotinin); VpGSTT2 eluted at 10.8 mL, corresponding to 48.2 kDa; protein dialysed against Tris-HCl, 150 mM NaCl, pH 7.2. Background: Size exclusion chromatography separates by hydrodynamic size, large species first.

`O=[N+]([O-])c1ccc(Cl)c([N+](=O)[O-])c1` [CDNB, 1-chloro-2,4-dinitrobenzene]: the Km at VpGSTT2 was 1000 µM.

“Glutathione S-transferase class Gtt2 from Vibrio parahaemolyticus (VpGSTT2) (enzyme)” gave a stoichiometry N in test [1] of 2.

What is called stoichiometry N is the number of molecules, sites or subunits per partner or assembly.
